Experimental findings from patent US20220152117A1, “METHODS OF PROMOTING CELLULAR MATURATION WITH AMPK ACTIVATORS” (UNIVERSITY OF WASHINGTON, priority 2019, published 2022) are described below.

Holding throughout (format): cell-based, human
Assay [1] deals with hPSC-CMs. As to the kind of experiment: Quantitative RT-PCR gene expression in cardiomyocytes. On the procedure:
Total RNA was isolated using the Qiagen RNeasy Kit™, and mRNA was reverse transcribed using the Superscript™ III first strand cDNA synthesis kit (Invitrogen®). All primers were purchased from Real Time Primers, and qRT-PCR was performed using SYBR™ green chemistry and an ABI 7900HT instrument or TAQMAN™ with BIORad CXF384™. Samples were normalized using hypoxanthine-guanine phosphoribosylthransferase (HPRT) as a housekeeping gene. The sequences of the primers are listed below in Table 1. The primers used for titin isoforms were adapted from^29. All Q-RT-PCR assays were performed in triplicate on control and experimental groups and firstly normalized to hHPRT level and then normalized against control cardiomyocytes. N=4-5 independent experiments.

For assay [2], the system named is hPSC-CMs. As to the kind of experiment: Electron microscopy and point counting of relative mitochondrial volume. The following applies: after AICAR treatment; control 0.068±0.006. On the procedure:
Adherent cells in tissue culture dishes were fixed for transmission electron microscopy in half-strength Karnovsky's fixative (2.0% paraformaldehyde, 2.5% glutaraldehyde, 0.1M phosphate buffer, pH 7.4) overnight. The cells were then washed in 0.1M phosphate buffer two times (5 minutes each) and post-fixed in 1.0% OsO4 in 0.1M phosphate buffer. Cells were rinsed twice (5 minutes each) then dehydrated in […], 70% and 90% alcohol, 2 minutes each, then in 100% alcohol twice (5 minutes each). Cells were embedded in Polybed 812 Resin™ (Ted Pella®, Redding, Calif.) by first infiltrating with a mixture of 50% alcohol/50% polybed for 1 hour and then pure polybed for 3 hours. Beem capsules filled with fresh resin were inverted over areas of cells. Polymerization procedure was performed for 24 hours at 65° C. Removal of beem capsules was achieved by placing plates in boiling water then gently peeling the capsule containing the polymerized resin and cells away from the plastic plate. Sections for light and transmission electron microscopy were cut using a Reichert Ultracut E Microtome™. […] The relative mitochondrial volume was calculated by point counting, in which 20 horizontal and 20 perpendicular lines were drawn in the images and the crosspoints that overlapped with mitochondria was counted and then divided by the total points.

Assay [3] relates to hPSC-CMs. As to the kind of experiment: Immunocytochemistry, imaging and morphological analysis (cell size, circularity index). On the procedure:
Cells were fixed in 4% paraformaldehyde for 10 min followed by PBS wash. The fixed cells were blocked with 1.5% normal goat serum for 1 hour at room temperature and incubated overnight at 4° C. with primary antibodies. Mouse anti-α-actinin (Sigma) was used. The samples were rinsed with PBS and incubated with a secondary antibody. Samples subjected to F-actin staining were incubated with TRITC-labeled phalloidin (Sigma) for 5 min at room temperature. Nuclei were stained with Hoechst 33342. Fluorescent images were acquired using a Zeiss AxioCam™ mounted on a Zeiss AxioObserver Microscope™, and confocal images were processed and quantified using NIS Elements. Each cell was analyzed for cell size and circularity index.

In assay [4] the test system is control cardiomyocytes. Briefly: TUNEL cell viability assay, control cardiomyocytes from normal iPSCs. To be noted: two weeks treatment, TUNEL with α-actinin co-stain. On the procedure: The normal and mutant Plakophilin 2 (PKP2) cells were generated as described previously^37. Induced pluripotent cells were cultured with E8 medium in Matrigel® coated plates. Cardiomyocytes were obtained using a protocol based on Lian et al^38 that involves Wnt agonist CHIR 99021 in the early stages of differentiation followed by the Wnt antagonist IWP2 under monolayer condition. Before Day 7, cells were cultured in RPMI plus B27 without insulin while on Day 7 and afterwards, EB media (KO-DMEM with 2% FBS, 1 mM NEAAs, 1× GlutaMAX, 1 mM mercaptoethanol, and penicillin/streptomycin) was used. At 30 days of differentiation, beating EBs were treated with three factors (3F) (50 μg/ml insulin, 0.5 μM dexamethasone, and 0.25 mM IBMX) or five factors (5F) (3F plus PPAR-γ agonists 5 μM rosiglitazone and 200 μM indomethacin) media as described earlier or treated with 1 mM AICAR or AICAR plus rosiglitazone and indomethacin for two weeks. TUNEL staining with In Situ Cell Death Detection Kit TMR Red™ (Roche®) was used to assess cell viability after conducting different treatment. TUNEL staining was co-stained with anti-α-actinin antibody so that cardiomyocyte-specific apoptosis could be assessed.

Where [5] appears, read: AICAR treated vs control hPSC-CMs.
Setting [6] is: hPSC-CMs, normalized to HPRT then to control cells.
Where [7] appears, read: normalized to HPRT then to control cells.

Take `NC(=O)c1ncn([C@@H]2O[C@H](CO)[C@@H](O)[C@H]2O)c1N` [AICAR, 5-amino-4-imidazolecarboxamide riboside-1-β-D-ribofuranoside]: in assay [1] (setting [5]), the cTnI expression levels entry is given as “upregulated”, the “ssTnI to cTnI ratio” value is recorded as “significantly downregulated”, the “titin N2B expression level” value is “significantly upregulated” and the “titin N2BA expression level” value is given as “did not change”. Further, in assay [1] (setting [5]), the “titin N2BA to N2B ratio” value is reported as “significantly down-regulated” and the “total titin expression level” value is reported as “did not change”. Also, the “FABP and PDK4 gene expression levels in cardiomyocytes derived from RUES2 hESCs” value in assay [1] (RUES2 hESC-derived cardiomyocytes) was “same trend of changes”. Also, in assay [1] (setting [6]), the “fatty acid binding protein (FABP) expression level” value is on record as “significant increase” and the “pyruvate dehydrogenase kinase-4 (PDK4) expression level” value is given as “significant increase”. Besides, in assay [1] (setting [7]), the “PGC-1α mRNA level” value came to 2.07±0.31, the “estrogen-related receptor α (ERR α) mRNA level” value is reported as 1.50±0.12, the “mitochondrial transcription factor A (TFAM) mRNA level” value was found to be 2.03±0.11 and the “peroxisome proliferator activated receptor alpha (PPARα) mRNA level” value stood at 1.78±0.22. For the same molecule, in assay [1] (vs. control), the KCNJ2 expression was found to be 1.71±0.17 fold, the SCN5a expression is listed as 1.58±0.2 fold and the “α-myosin heavy chain (α-MHC) expression” value came out at 2.64±0.51 fold. The mitochondrial volume fraction in assay [2] was determined as 0.119±0.013. Further, in assay [3] (AICAR-treated hPSC-CMs, control 0.51±0.01), the circularity index is listed as 0.40±0.02. For the same molecule, the cell area in assay [3] (AICAR-treated hiPSC-CMs, control 1141±40) is on record as 2321±120 μm^2. Besides, in assay [4], the “apoptosis in control cardiomyocytes” value was “None of the treatment groups significantly leads to apoptosis”.
